Results as given in patent US20250089713A1, “METHOD OF CONTROLLING OR REDUCING SENESCENCE IN PLANTS AND SEEDS” (Bedoukian Reseach, Inc., priority 2023, published 2025).
Several values for one entry are separate records, joined by “and”; a condition that tells them apart may be missing. Identical values can stand only once.

Experiments:
[1] = tested on: seeds of the corn varietal Kandy Korn; assay: Reduction of retarded seed germination rate senescence, seed soak (germination rate and radicle length); type: in vivo
Description: Non-germinated seeds of the corn varietal Kandy Korn are soaked in one of two treatment solutions: T1: untreated, only water and T2: treated, 1.5 mM (0.034% wt) of methyl dihydrojasmonate (MDJ) in water for 24 hours in 50 mL conical vessels. During the soak event, the seeds spend 12 hours in typical lighting conditions and 12 hours in darkness. Following seed treatment, the treatment solutions are drained from their vessels and a selection of seeds are taken from each vessel for planting. Six two-inch pots are planted for each treatment group, with three seeds per pot, for a total of 18 seeds planted per treatment. The unplanted seeds are allowed to remain in their original vessels in lighted conditions. In addition to determining the germination rate, the radicle lengths of the germinated seeds are measured.

[2] = tested on: corn (Kandy Korn, extra sweet) plants; assay: Reduction of plant wilting senescence, foliar spray on corn seedlings; type: in vivo; conditions: foliar spray of 1 mM (0.023% wt) in water at day 18, observed at day 25, n = 12, untreated 65%
Description: Seeds of corn (Kandy Korn, extra sweet) are planted in 2-inch pots. Seedlings are grown in 2-inch pots under 16-hour day/8-hour night greenhouse conditions. Plants are placed outdoors and receive 5-6 hours of natural, direct light 4-6 days per week. At day 18, seedlings receive one of two treatments: T1: untreated plants (n=11) and T2: treated, plants with foliar spray of 1 mM (0.023% wt) of methyl dihydrojasmonate (MDJ) in water. Plants are sprayed until the point of drip. (n=12). At day 25, plants are observed and senescence is recorded (percentage of wilting plants).

## CCCCCC1C(=O)CCC1CC(=O)OC (stereo not shown) [MDJ, methyl dihydrojasmonate]
[1]; corn seeds soaked 24 hours in 1.5 mM (0.034% wt) in water, n = 10, untreated (only water) 50%
  Germination Rate (percent of seeds that germinated): 100%
[1]; corn seeds soaked 24 hours in 1.5 mM in water, one value per seed, untreated 1-3 mm, listed as Methyl Dihydrojasmonate (MDJ)
  Radicle length measurements of unplanted germinated seeds (individual seeds): 5 mm (3×) and 6 mm (2×) and 4 mm (4×) and 3 mm
[1]; corn seeds soaked in 1.5 mM, FIG. 2
  average radicle length compared with untreated (only water): significantly longer
[2]
  % of plants with senescing plant wilting: 25%
